Data on 19 compounds can be found in paper PMC8777765, “Identification of Cyclic Sulfonamides with an N-Arylacetamide Group as α-Glucosidase and α-Amylase Inhibitors: Biological Evaluation and Molecular Modeling” (Pharmaceuticals, 2022).

Series [1] deals with T1, Aspergillus oryzae α-amylase (Aspergillus oryzae, UniProt P0C1B3).
T1 construct: purchased Sigma-Aldrich, Munich, Germany
The series is described as follows: in vitro α-amylase inhibition (starch substrate, DNSA). It counts as biochemical.
Description: A total of 40 µL of each test sample was pipetted out in 96-well microliter plates. This was mixed with 40 µL of Aspergillus oryzae α-amylase (Sigma-Aldrich, Munich, Germany) solution (prepared in Na2SO4 buffer (0.02 M, pH = 6.9)). Incubation of solutions was executed at 37 °C for 10 min. After incubation, 40 µL of starch solution prepared in 1% DMSO was added into each well as a substrate and placed at 25 °C for 10 min. After this, 100 µL of 3,5-dinitrosalicylic acid (DNSA) was added and incubated for 5 min in boiling water. After cooling and dilution of mixtures with distilled water (400 μL), the absorbance was recorded at 540 nm wavelength [91] and 37 °C temperature with the help of a microplate reader. […] Each experiment was carried out thrice, and percentage inhibitions were determined with the help of following expression, followed by the determination of IC50 values. % Inhibition = [(Acontrol − Asample)/Acontrol] × 100 where A is absorbance.

In series [2] the target is yeast α-glucosidase enzyme. Put plainly: in vitro α-glucosidase inhibition (PNPG substrate). It counts as biochemical, Saccharomyces cerevisiae. The note with it: for IC50: PNPG substrate.
Description: α-Glucosidase inhibitions were determined following a modified spectroscopic method [87]. A solution of α-glucosidase (obtained from Saccharomyces cerevisiae (Sigma-Aldrich, Munich, Germany)) was prepared in phosphate buffer (pH 6.8, 100 mM). Wells of the 96-well microliter plates were filled with test sample solutions (12.5 μL) prepared in DMSO. After this, enzyme (0.5 U/mL, 40 μL) and then phosphate buffer (100 mM, 120 μL) were also mixed with the test sample solutions. Incubation at 37 °C for 5 min and then addition of 40 μL of the substrate, p-nitrophenyl-α-D-glucopyranoside (PNPG) (5 nM, Sigma-Aldrich, Munich, Germany), was performed. Mixtures were again incubated for 30 min, and absorbance was measured at 405 nm and 37 °C for the released 4-nitrophenol in each mixture. […] Each experiment was carried out thrice, and percentage inhibitions were determined with the help of following expression, followed by the determination of IC50 values. % Inhibition = [(Acontrol − Asample)/Acontrol] × 100 where A is absorbance.
Series [3] addresses α-glucosidase. The arrangement: method as in PMID 32024621. The note with it: read-out: α-glucosidase IC50 (literature); cited from earlier work.
Series [4] concerns the target α-glucosidase. The series is described as follows: enzyme inhibition kinetics (Lineweaver–Burk), α-glucosidase. It is filed as biochemical, Saccharomyces cerevisiae. The conditions noted are these: secondary plots; PNPG 1–9 mM; read-out: Ki (inhibition constant), α-glucosidase. The source says: (§1) The pattern of the Lineweaver–Burk plot can visualize the type of inhibition, as shown in Figure 6A−F. […] Secondary plots were drawn to determine the value of the inhibition constant Ki and the dissociation constant Ki’. Smaller Ki implies higher enzyme inhibition, implying the possibility of an allosteric binding site in the enzyme, to which synthetic drugs could bind.
(§2) The Lineweaver–Burk equation was used to determine the type of inhibition. α-Glucosidase and α-amylase activities were studied in the absence and presence of various sample concentrations (0.1 mM, 0.25 mM, 0.5 mM, 0.75 mM and 1.0 mM). For α-glucosidase inhibition kinetics, PNPG was used as a substrate, with different concentrations (1 mM, 3 mM, 5 mM, 7 mM and 9 mM). In α-amylase inhibition kinetics, various amounts of starch solution (0.25–2%) were tested. All experiments were carried out in triplicate, and the outcomes were written as mean ± S.D.

The next series has as its target T2, α-amylase (Aspergillus oryzae, UniProt P0C1B3).
T2 construct: purchased Sigma-Aldrich, Munich, Germany
Put plainly: enzyme inhibition kinetics (Lineweaver–Burk), α-amylase. It is filed as biochemical. The note with it: secondary plots; starch 0.25–2%; read-out: Ki (inhibition constant), α-amylase.
Description: as §1, §2

In series [5] the target is human 11β-hydroxysteroid dehydrogenase type 1 (11β-HSD1). The arrangement: method as in PMID 21212546. The conditions noted are these: cited from earlier work.
The target in a further series is aldose reductase. The arrangement: method as in PMID 22036211. The note with it: cited from earlier work.
Series [6] concerns severe acute respiratory syndrome coronavirus 2 (SARS-CoV-2). The arrangement: method as in PMID 33160024. The conditions noted are these: cited from earlier work.

The melting point is the temperature, or range, at which the solid turns liquid. In general, IC50 refers to the concentration that inhibits the measured activity by half. Turning to `COc1cccc(C(=O)C2=C(O)c3ccccc3S(=O)(=O)N2CC(=O)Nc2cccc(Br)c2)c1` [Compound 12h, N-(3-Bromophenyl)-2-(4-hydroxy-3-(3-methoxybenzoyl)-1,1-dioxido-2H-benzo[e][1,2]thiazin-2-yl)acetamide], the melting point was 132 to 133 °C. Further, the IC50 in series [1] came out at 110 µM. In [2], this compound had an IC50 of 86.2 µM.

On to `COc1cccc(C(=O)C2=C(O)c3ccccc3S(=O)(=O)N2CC(=O)Nc2cccc([N+](=O)[O-])c2)c1` [Compound 12e, 2-(4-Hydroxy-3-(3-methoxybenzoyl)-1,1-dioxido-2H-benzo[e][1,2]thiazin-2-yl)-N-(3-nitrophenyl)acetamide], for which the melting point is 189 to 190 °C. For the same compound, the IC50 in [1] was determined as 37.5 µM. Besides, in [2], the “α-glucosidase inhibition (in words)” value was “failed to show any remarkable inhibition”.

As for `C/C(=N\NC(=O)C1=C(O)c2ccccc2S(=O)(=O)N1)c1ccccc1` [Compound 6], at α-glucosidase [3], the IC50 was 3.9 µM.

As to `COc1cccc(C(=O)C2=C(O)c3ccccc3S(=O)(=O)N2CC(=O)Nc2ccccc2OC)c1` [Compound 12l, 2-(4-Hydroxy-3-(3-methoxybenzoyl)-1,1-dioxido-2H-benzo[e][1,2]thiazin-2-yl)-N-(2-methoxyphenyl)acetamide], in series [2], the “α-glucosidase inhibition (in words)” value is recorded as “failed to show any remarkable inhibition” and inhibition was half-maximal at 110 µM (IC50).

In general, Ki refers to a measure of affinity in units of concentration, obtained from inhibition or displacement. With `COc1cccc(C(=O)C2=C(O)c3ccccc3S(=O)(=O)N2CC(=O)Nc2ccc(Br)cc2)c1` [Compound 12i, N-(4-Bromophenyl)-2-(4-hydroxy-3-(3-methoxybenzoyl)-1,1-dioxido-2H-benzo[e][1,2]thiazin-2-yl)acetamide], the results for the IC50 in series [1] and in series [2] were 7.52 µM and 25.9 µM, respectively. For the same compound, the Ki at α-glucosidase [4] was found to be 100 µM; on α-amylase, 70.4 µM.

As to `COc1cccc(C(=O)C2=C(O)c3ccccc3S(=O)(=O)N2CC(=O)Nc2cccc(Cl)c2)c1` [Compound 12b, N-(3-Chlorophenyl)-2-(4-hydroxy-3-(3-methoxybenzoyl)-1,1-dioxido-2H-benzo[e][1,2]thiazin-2-yl)acetamide], the “α-glucosidase inhibition (in words)” value in series [2] is “failed to show any remarkable inhibition”.

`COc1cccc(C(=O)C2=C(O)c3ccccc3S(=O)(=O)N2CC(=O)Nc2ccc([N+](=O)[O-])cc2)c1` [Compound 12f, 2-(4-Hydroxy-3-(3-methoxybenzoyl)-1,1-dioxido-2H-benzo[e][1,2]thiazin-2-yl)-N-(4-nitrophenyl)acetamide] showed a melting point of 176 to 177 °C. The compound further showed an IC50 in series [1] of 29 µM. Moreover, in [2], half-maximal inhibition (IC50) was put at 97 µM.

For `O=C(CN1C(C(=O)Nc2ccccc2)=C(O)c2ccccc2S1(=O)=O)Nc1cccc(C(F)(F)F)c1` [Compound 3], in [5], the IC50 is 0.041 µM.

In turn, `COc1cccc(C(=O)C2=C(O)c3ccccc3S(=O)(=O)N2CC(=O)Nc2cccc(C)c2)c1` [Compound 12k, 2-(4-Hydroxy-3-(3-methoxybenzoyl)-1,1-dioxido-2H-benzo[e][1,2]thiazin-2-yl)-N-(m-tolyl)acetamide] had a melting point of 150 to 151 °C. In series [1], this compound came in with an IC50 of 67.2 µM. The compound also had an IC50 in [2] of 30.4 µM.

In turn, `COc1cccc(C(=O)C2=C(O)c3ccccc3S(=O)(=O)N2CC(=O)Nc2ccccc2Cl)c1` [Compound 12a, N-(2-Chlorophenyl)-2-(4-hydroxy-3-(3-methoxybenzoyl)-1,1-dioxido-2H-benzo[e][1,2]thiazin-2-yl)acetamide] showed a melting point of 186 to 187 °C. Moreover, in series [1], inhibition was half-maximal at 13.3 µM (IC50). The midpoint of inhibition in series [2], the IC50, lay at 46.2 µM.

`COc1cccc(C(=O)C2=C(O)c3ccccc3S(=O)(=O)N2CC(=O)Nc2ccc(Cl)cc2)c1` [Compound 12c, N-(4-Chlorophenyl)-2-(4-hydroxy-3-(3-methoxybenzoyl)-1,1-dioxido-2H-benzo[e][1,2]thiazin-2-yl)acetamide] returned a melting point of 146 to 147 °C. The IC50 in [1] is 125 µM. For the same compound, it took 40.8 µM to reach half-maximal inhibition in series [2] (IC50).

`COc1cccc(C(=O)C2=C(O)c3ccccc3S(=O)(=O)N2CC(=O)Nc2ccccc2[N+](=O)[O-])c1` [Compound 12d, 2-(4-Hydroxy-3-(3-methoxybenzoyl)-1,1-dioxido-2H-benzo[e][1,2]thiazin-2-yl)-N-(2-nitrophenyl)acetamide]: the IC50 worked out at 15.1 µM in series [1] and 102 µM in series [2]. Besides, the “α-glucosidase inhibition (in words)” value in series [2] is reported as “failed to show any remarkable inhibition”.

Regarding `C/C(=N\NC(=O)C1=C(O)c2ccccc2S(=O)(=O)N1C)c1ccccc1` [Compound 7], the IC50 on α-glucosidase [3] was 4.2 µM.

`COc1ccc(NC(=O)CN2C(C(=O)c3cccc(OC)c3)=C(O)c3ccccc3S2(=O)=O)cc1` [Compound 12m, 2-(4-Hydroxy-3-(3-methoxybenzoyl)-1,1-dioxido-2H-benzo[e][1,2]thiazin-2-yl)-N-(4-methoxyphenyl)acetamide]: the melting point was in the range of 201 to 202 °C. In addition, the IC50 in series [1] was 122 µM. Moreover, the “α-glucosidase inhibition (in words)” value in series [2] is given as “failed to show any remarkable inhibition”.

`COc1cccc(C(=O)C2=C(O)c3ccccc3S(=O)(=O)N2CC(=O)Nc2ccccc2C)c1` [Compound 12j, 2-(4-Hydroxy-3-(3-methoxybenzoyl)-1,1-dioxido-2H-benzo[e][1,2]thiazin-2-yl)-N-(o-tolyl)acetamide] came in with a melting point of 166 °C. The “α-glucosidase inhibition (in words)” value in series [2] was “failed to show any remarkable inhibition”.

In turn, `COc1cccc(C(=O)C2=C(O)c3ccccc3S(=O)(=O)N2CC(=O)Nc2ccccc2Br)c1` [Compound 12g, N-(2-Bromophenyl)-2-(4-hydroxy-3-(3-methoxybenzoyl)-1,1-dioxido-2H-benzo[e][1,2]thiazin-2-yl)acetamide] displayed a melting point of 169 to 171 °C. The IC50 in series [1] is 11.7 µM. This compound also showed an IC50 in series [2] of 35.1 µM.

Take `COc1cccc(C(=O)C2=C(O)c3ccccc3S(=O)(=O)N2)c1` [Compound 11, (4-Hydroxy-1,1-dioxido-2H-benzo[e][1,2]thiazin-3-yl)(3-methoxyphenyl)methanone]: in [1], inhibition was half-maximal at 147 µM (IC50). Also, the “α-glucosidase inhibition (in words)” value in series [2] was “failed to show any remarkable inhibition”.

Turning to `O=C(O)/C=C1\CN(Cc2ccc(Br)cc2F)S(=O)(=O)c2ccccc21` [Compound 5], the IC50 at aldose reductase was 0.11 µM.

With `O=C(CN1C(C(=O)Nc2ccc(F)c(Cl)c2)=C(O)c2ccc(F)cc2S1(=O)=O)Nc1ccc(C(F)(F)F)cc1` [Compound 4], in series [6], the IC50 is 0.88 µM.
